Entries after “also recorded” stand apart in the source; their conditions may differ.
Experiments:
[1] = test system: mTORC1 and mTORC2 signaling in SW480 mTOR(L2185A) cells; test: mTORC1/mTORC2 signaling immunoblot in SW480 cells carrying L2185A mutant mTOR; format: cell-based, human; details: various concentrations, 1 hr, immunoblot of P-S6K, P-4E-BP1, P-AKT
Method: (FIG. 5A) SW480 cells carrying homozygous WT mTOR or L2185A mutant alleles were treated with various concentrations of AZD8055, INK-128, OSI-027 and PP242 for 2 day. Growth of SW480 cells was measured by SRB assay. Data represent means±SD in three independent experiments. (FIG. 5B) SW480 cells carrying homozygous WT and L2185A mutant mTOR allele were treated with a single dose of AZD8055 (100 nM), INK-128 (100 nM), OSI-027 (6,000 nM), and PP242 (2,000 nM) for different times. Cell growth was measured by SRB assay. The drug carrier DMSO was used as a control. Data represent means±SD in three independent experiments. (FIG. 5C) SW480 cells carrying homozygous WT and L2185A mutant mTOR were treated with various concentrations of INK-128, OSI-027, AZD8055 and PP242 for 1 hr. The effect on the level of P-S6K, S6K, P-4E-BP1, 4EB-P1, P-AKT and AKT was analyzed by immunoblot. […] The growth of SW480 cells was measured by SRB assay. Data represent means±SD in three independent experiments.
Antibodies against tubulin, S6K, phospho-S6K (Thr389), 4E-BP1, phospho-4E-BP1 (Thr37/46), Akt, phospho-Akt (Thr308), and phospho-Akt (Ser473) were purchased from Cell Signaling Technology. […] For drug sensitivity test, cancer cells were seeded in 96-well plates at a density of 2,000 cells per well. 24 hours later, different concentrations of mTOR inhibitors were added in quadruplicate. Cell growth was measured by the sulforhodamine B (SRB) assay as previously described (Vichai, V., and Kirtikara, K. (2006). Nature protocols 1, 1112-1116).

[2] = test system: xenograft tumors derived from SW480 cells expressing WT mTOR; test: SW480 xenograft tumor model, WT mTOR; format: in vivo, mice
Method: FIGS. 6A-E. L2185A mutation renders resistance of xenograft tumors to mTOR kinase inhibitors. (FIG. 6A) Mice bearing xenograft tumors derived from SW480 cells expressing WT mTOR were administered with INK128 at 1 mg/kg or 0.3 mg/kg, once daily via intraperitoneal injection. Shown are representative animals and excised tumors after drug treatment. (FIG. 6B) Same as FIG. 6A except xenograft tumors were derived from SW480 carrying homozygous mTOR(L2185A) alleles. (FIG. 6C) Tumor volume measurement for SW480 xenograft tumors expressing mTOR (WT) (expressed as means±SD; n=8, *P<0.01, vs. vehicle control). (FIG. 6D) Tumor volume measurement for SW480 xenograft tumors expressing mTOR(L2185A) mutant (expressed as means±SD; n=8). (FIG. 6E) Tissue extracts from xenograft tumors at the end of treatment with or without 1 mg/kg INK128 were analyzed for the level of P-S6K, S6K, P-S6, S6, P-4E-BP1, 4E-BP1, P-AKT and AKT was analyzed by immunoblot. Six tumor samples from each animal group were shown with each lane representing an individual tumor sample.
Female athymic NCr-nu/nu mice (4-6 weeks old) were obtained from Taconic Farms. […] Tumor volume was calculated by the following formula: tumor volume (mm^3)=(shorter diameter^2× longer diameter)/2 and are presented as means±SD (n=8) (Zhang, Y., and Zheng, X. (2012). Cell Cycle 11, 594-603). […]

[3] = test system: TOR2-mTOR L2185C mutant; test: Yeast spotting assay for drug resistance, TOR2-mTOR L2185C; format: cell-based, S. cerevisiae; details: 37° C., amphotericin B present (except OSI-027)
Source text: (§1) FIGS. 4A-C. […] (FIG. 4A) Scheme of a yeast-based screen for drug-resistant mutations in mTOR kinase domain. mTOR kinase domain is amplified by error-prone PCR to generate randomized mutations, which is then recombined in frame into the TOR2-mTOR plasmid by gap-repair in tort-dg cells, and is selected on SC-leucine minus plates. Replica plating is then made onto SC-leucine plates containing DMSO or mTOR kinase inhibitor for selection of drug resistant clones. (FIG. 4B) tor2-dg cells expressing WT or mutant TOR2-mTOR were serially diluted by 10-fold and assayed for sensitivity to different mTOR kinase inhibitors in the presence of amphotericin B. Vector and TOR2 were used as controls. Drug resistant assay was performed at 37° C. in the presence of amphotericin B (except OSI-027). (FIG. 4C) Systematic mutational analysis of L2185 on drug resistance. tort-dg cells expressing WT or mutant TOR2-mTOR carrying all possible mutations at L2185 were serially diluted by 10-fold and tested for sensitivity to different mTOR kinase inhibitors at 37° C.
(§2) To enhance yeast cell permeability, log phase W303 tort-dg cells were spread evenly on SD-Leu agarose plates. After drying, small sterile filter discs were placed on the surface and 5 μl of indicated mTOR inhibitors or DMSO were applied to each disc with or without adding 5 μl of amphotericin B (10 μM), miconazole (50 μM) or caspofungin (50 μM). Plates were incubated at 37° C. for 3 day. Drug resistance profiles of TOR2-mTOR mutant cells were determined by the spotting assay. For this assay, 10-fold serial dilutions of cells were spotted on SD-leu plates in the presence of indicated mTOR inhibitors with or without amphotericin B (200 nM) and incubated at 37° C. for 3 day.

[4] = test system: TOR2-mTOR L2185A mutant; test: Yeast spotting assay for drug resistance, TOR2-mTOR L2185A; format: cell-based, S. cerevisiae; details: 37° C., amphotericin B present (except OSI-027)
Source text: as §1, §2

## CC(C)n1nc(-c2ccc3oc(N)nc3c2)c2c(N)ncnc21 [INK128]
[1]
  drug resistance of mTORC1 and mTORC2 signaling, SW480 L2185A vs WT: drug-resistant signaling by both mTORC1 and mTORC2
[2]; 1 mg/kg or 0.3 mg/kg once daily, intraperitoneal injection
  growth of WT mTOR xenograft tumors: strongly attenuates growth
[2]; 1 mg/kg, tumor extracts at end of treatment, immunoblot
  mTOR signaling in WT mTOR xenograft tumors: complete blockadge of mTOR signaling
[3]
  drug resistance/sensitivity of TOR2-mTOR L2185C mutant yeast: confer resistance; also recorded: conferring resistance
[4]
  drug resistance/sensitivity of TOR2-mTOR L2185A mutant yeast: confer resistance; also recorded: conferring resistance

From US10551384B2, “MTOR kinase mutations and methods of use thereof” (RUTGERS, THE STATE UNIVERSITY OF NEW JERSEY, priority 2016, dated 2020)
